Tests used:
[1] = Stability at 40° C. and 75% relative humidity (percent purity by HPLC); type: physicochemical; conditions: 40° C. and 75% RH
Description: As used herein, a “stable composition” refers a composition comprising a sulfur-containing compound and a baseline amount of the compound of formula (I) (e.g., such as percent purity as measured by HPLC) such that, after being subjected to standard stability conditions (e.g., 40° C. and 75% relative humidity) for a specified period of time (e.g., 1 day, 2 days, 3 days, 4 days, 5 days, 7 days, 14 days, 21 days, or 30 days), at least about 80% of the original amount of the compound of formula (I) remains in the composition (i.e., has not oxidized to a compound of formula (II) or degraded to other by-products). In certain embodiments, at least about 85%, at least about 90%, at least about 91%, at least about 92%, at least about 93%, at least about 94%, or at least about 95% of the original amount of the hydroquinone compound of formula (I) remains in the composition for a specified period of time (e.g., 1 day, 2 days, 3 days, 4 days, 5 days, 7 days, 14 days, 21 days, or 30 days).
The stability data for 17-AG-HQ of Example 2 when kept at 40° C. and 75% relative humidity (RH) is depicted in FIG. 8 (see Table 2 for tabulated stability data). It was observed that 17-AG-HQ of Example 2 completely oxidizes to its quinone form in two weeks at 40° C. and […] as determined by HPLC.

[2] = Solubilizing or suspending agents: color change as indication of oxidation of 17-AG-HQ to 17-AG; type: physicochemical; conditions: argon headspace, checked up to one hour
Description: Solvents (2 mL) were pipetted out into labeled vials (Table 4). After purging the headspace with argon, the solvent vials were chilled at 4° C. for 1 hour. 17-AG-HQ of Example 2 (10 mg) was added each solvent vial and headspace was purged again with argon. The vials were checked for color change for up to one hour. Color change is an indication of stability: 17-AG-HQ is yellow while 17-AG is pink, thus a color change from yellow to pink would indicate oxidation of 17-AG-HQ to 17-AG. This listing of suitable solvents or suspending agents is also applicable for solvating/suspending the hydroquinones of Examples 3-6, 8, 10 or 11.

[3] = Table 12, formulations of 17-AG-HQ of Example 2

SMILES: CO[C@H]1/C=C\C=C(/C)C(=O)Nc2cc(O)c(N)c(c2O)C[C@@H](C)C[C@H](OC)[C@H](O)[C@@H](C)/C=C(\C)[C@@H]1OC(N)=O [17-AG-HQ of Example 2, 17-amino-geldanamycin hydroquinone]
- time in which the hydroquinone completely oxidizes to its quinone form ([1]; determined by HPLC): two
- stability compared to 17-AG-HQ HCl salt of Example 1 ([1]; more prone to oxidation): less stable
- Percent Purity of 17-AG-HQ T = 0 Days ([1]; Table 2): 92%
- Percent Purity of 17-AG-HQ T = 2 Days ([1]; Table 2): 66%
- Percent Purity of 17-AG-HQ T = 5 Days ([1]; Table 2): 22%
- Percent Purity of 17-AG-HQ T = 14 Days ([1]; Table 2): 0%
- Percent Purity of 17-AG-HQ T = 30 Days ([1]; Table 2): 0%
- Percent Purity of 17-AG-HQ T = 0 Days [1, 3]: 92%
- Percent Purity of 17-AG-HQ T = 2 Days [1, 3]: 66%
- Percent Purity of 17-AG-HQ T = 5 Days [1, 3]: 22%
- Percent Purity of 17-AG-HQ T = 14 Days [1, 3]: 0%
- Percent Purity of 17-AG-HQ T = 30 Days [1, 3]: 0%
- Observations ([2]; Acetone, 10 mg in 2 mL solvent chilled at 4° C.): Dissolves with no color change
- Observations ([2]; DMSO:Acetonitrile:TFA (80:20:0.1), 10 mg in 2 mL solvent chilled at 4° C.): Dissolves with color change to rusty
- Observations ([2]; Dichloromethane, 10 mg in 2 mL solvent chilled at 4° C.): Dissolves with no color change
- Observations ([2]; Ethanol, 10 mg in 2 mL solvent chilled at 4° C.): Dissolves with no color change
- Observations ([2]; Methanol, 10 mg in 2 mL solvent chilled at 4° C.): Dissolves with color change to red
- Observations ([2]; Mineral Oil, 10 mg in 2 mL chilled at 4° C.): Suspends with no color change
- Observations ([2]; Propylene Glycol, 10 mg in 2 mL solvent chilled at 4° C.): Dissolves with color change to rusty
- Observations ([2]; Toluene, 10 mg in 2 mL solvent chilled at 4° C.): Dissolves with no color change
- Observations ([2]; Xylene, 10 mg in 2 mL solvent chilled at 4° C.): Dissolves with no color change

— patent publication US8778921B2, “Ansamycin hydroquinone compositions” (Infinity Pharmaceuticals, Inc., priority 2008, dated 2014)
